One compound from ChEMBL document CHEMBL1147456, “Binding modes of 6,7 di-substituted 4-anilinoquinoline-3-carbonitriles to EGFR” (Bioorg Med Chem Lett, 2004) can be followed below.

The target in the experiment is Epidermal growth factor receptor (Homo sapiens, UniProt P00533). Briefly: Concentration required to inhibit autophosphorylation of cytoplasmic domain of epidermal growth factor receptor (EGFR).
Sequence of Epidermal growth factor receptor (P00533 whole entry, the tested form may be a part): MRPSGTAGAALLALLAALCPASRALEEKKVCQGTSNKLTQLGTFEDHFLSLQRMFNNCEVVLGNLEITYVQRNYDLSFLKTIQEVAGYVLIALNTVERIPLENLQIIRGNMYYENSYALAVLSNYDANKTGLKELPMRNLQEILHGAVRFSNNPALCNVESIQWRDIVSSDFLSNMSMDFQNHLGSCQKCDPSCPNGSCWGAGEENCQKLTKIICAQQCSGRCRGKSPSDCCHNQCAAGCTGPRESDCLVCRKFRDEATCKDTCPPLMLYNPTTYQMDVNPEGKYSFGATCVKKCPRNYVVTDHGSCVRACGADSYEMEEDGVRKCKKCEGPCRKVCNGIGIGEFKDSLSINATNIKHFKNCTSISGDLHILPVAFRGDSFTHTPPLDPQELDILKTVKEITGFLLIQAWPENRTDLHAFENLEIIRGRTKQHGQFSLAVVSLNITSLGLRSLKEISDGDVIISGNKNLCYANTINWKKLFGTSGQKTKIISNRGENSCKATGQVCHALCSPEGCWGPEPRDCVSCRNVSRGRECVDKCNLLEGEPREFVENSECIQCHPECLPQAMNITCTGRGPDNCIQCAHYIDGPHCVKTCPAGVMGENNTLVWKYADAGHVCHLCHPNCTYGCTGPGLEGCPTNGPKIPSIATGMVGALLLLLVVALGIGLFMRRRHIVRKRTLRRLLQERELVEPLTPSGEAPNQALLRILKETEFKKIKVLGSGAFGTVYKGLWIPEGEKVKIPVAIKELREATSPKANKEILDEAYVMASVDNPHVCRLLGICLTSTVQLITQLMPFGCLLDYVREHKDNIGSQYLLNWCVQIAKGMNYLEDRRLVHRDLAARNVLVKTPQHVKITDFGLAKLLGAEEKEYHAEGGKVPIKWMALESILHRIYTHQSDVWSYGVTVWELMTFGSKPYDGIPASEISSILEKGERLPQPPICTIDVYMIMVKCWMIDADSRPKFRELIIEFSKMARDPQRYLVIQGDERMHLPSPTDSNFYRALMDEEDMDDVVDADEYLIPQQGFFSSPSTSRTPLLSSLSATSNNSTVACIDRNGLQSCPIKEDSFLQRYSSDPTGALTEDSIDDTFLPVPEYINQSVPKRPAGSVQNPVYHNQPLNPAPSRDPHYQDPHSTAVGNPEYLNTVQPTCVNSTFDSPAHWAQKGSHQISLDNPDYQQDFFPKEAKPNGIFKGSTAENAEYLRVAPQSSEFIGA

Regarding `COC[C@@H]1CCCN1CC#CC(=O)Nc1ccc2ncc(C#N)c(Nc3cccc(Br)c3)c2c1`, 150 nM corresponded to half-maximal inhibition (IC50). This counts as sub-micromolar.

Usually IC50 stands for the concentration at which inhibition is half-maximal. Low values mean higher potency, high ones lower potency.
